Reference: patent US12692238B2, “Substituted pyridazinone herbicides” (FMC CORPORATION, priority 2020, dated 2026)

Key:
Type in all cases: in vivo
[1] = system: galium (catchweed bedstraw, Galium aparine); experiment: Test A postemergence, galium; settings: 10 days
Source text: (§1) Seeds of plant species selected from barnyardgrass (Echinochloa crus-galli), blackgrass (Alopecurus myosuroides), corn (Zea mays), foxtail, giant (giant foxtail, Setaria faberi), foxtail, green (green foxtail, Setaria viridis), goosegrass (Eleusine indica), kochia (Bassia scoparia), oat, wild (wild oat, Avena fatua), palmer amaranth (pigweed, palmer, Amaranthus palmeri), redroot pigweed (Amaranthus retroflexus), ragweed (common ragweed, Ambrosia artemisiifolia), ryegrass, Italian (Italian ryegrass, Lolium multiflorum), and soybean (Glycine max) were planted into a blend of loam soil and sand and treated preemergence with a directed soil spray using test chemicals formulated in a non-phytotoxic solvent mixture which included a surfactant.
(§2) At the same time, plants selected from these crop and weed species and also wheat (Triticum aestivum), galium (catchweed bedstraw, Galium aparine) and horseweed (Erigeron canadensis) were planted in pots containing the same blend of loam soil and sand and treated with postemergence applications of test chemicals formulated in the same manner. Plants ranged in height from 2 to 10 cm and were in the one- to two-leaf stage for the postemergence treatment. Treated plants and untreated controls were maintained in a greenhouse for 10 days, after which time all treated plants were compared to untreated controls and visually evaluated for injury. Plant response ratings, summarized in Table A, are based on a 0 to 100 scale where 0 is no effect and 100 is complete control. A dash (-) response means no test result.

[2] = system: ducksalad (Heteranthera limosa); experiment: Test B flooded paddy test, ducksalad; settings: 250 g ai/ha, Flood; visually evaluated after 10 to 14 days
Procedure: (§3) Plant species in the flooded paddy test selected from barnyardgrass (Echinochloa crus-galli), ducksalad (Heteranthera limosa), rice (Oryza sativa), and sedge, umbrella (small-flower umbrella sedge, Cyperus difformis) were grown to the 2-leaf stage for testing. At time of treatment, test pots were flooded to 3 cm above the soil surface, treated by application of test compounds directly to the paddy water, and then maintained at that water depth for the duration of the test. Treated plants and controls were maintained in a greenhouse for 10 to 14 days, after which time all species were compared to controls and visually evaluated. Plant response ratings, summarized in Table B, are based on a scale of 0 to 100 where 0 is no effect and 100 is complete control. A dash (-) response means no test result.

[3] = system: wheat (Triticum aestivum); experiment: Test A postemergence, wheat; settings: 10 days
Source text: as §1, §2

[4] = system: blackgrass (Alopecurus myosuroides); experiment: Test A postemergence, blackgrass; settings: 10 days
Source text: as §1, §2

[5] = system: foxtail, giant (giant foxtail, Setaria faberi); experiment: Test A postemergence, foxtail, giant; settings: 10 days
Source text: as §1, §2

[6] = system: barnyardgrass (Echinochloa crus-galli); experiment: Test A preemergence, barnyardgrass; settings: 10 days
Source text: as §1, §2

[7] = system: ragweed (common ragweed, Ambrosia artemisiifolia); experiment: Test A postemergence, ragweed; settings: 10 days
Source text: as §1, §2

[8] = system: barnyardgrass (Echinochloa crus-galli); experiment: Test A postemergence, barnyardgrass; settings: 10 days
Source text: as §1, §2

[9] = system: ragweed (common ragweed, Ambrosia artemisiifolia); experiment: Test A preemergence, ragweed; settings: 0 to 100 scale, 10 days
Source text: as §1, §2

kochia (Bassia scoparia) [10] = experiment: Test A postemergence, kochia; settings: 10 days
Source text: as §1, §2

corn (Zea mays) = experiment: Test A postemergence, corn; settings: 10 days
Source text: as §1, §2

kochia (Bassia scoparia) [11] = experiment: Test A preemergence, kochia; settings: 0 to 100 scale, 10 days
Source text: as §1, §2

[12] = system: redroot pigweed (Amaranthus retroflexus); experiment: Test A preemergence, redroot pigweed; settings: 0 to 100 scale, 10 days
Source text: as §1, §2

[13] = system: ryegrass, Italian (Italian ryegrass, Lolium multiflorum); experiment: Test A preemergence, ryegrass, Italian; settings: 0 to 100 scale, 10 days
Source text: as §1, §2

[14] = system: ryegrass, Italian (Italian ryegrass, Lolium multiflorum); experiment: Test A postemergence, ryegrass, Italian; settings: 10 days
Source text: as §1, §2

[15] = system: sedge, umbrella (small-flower umbrella sedge, Cyperus difformis); experiment: Test B flooded paddy test, sedge, umbrella; settings: 250 g ai/ha, Flood; visually evaluated after 10 to 14 days
Procedure: as §3

[16] = system: foxtail, giant (giant foxtail, Setaria faberi); experiment: Test A preemergence, foxtail, giant; settings: 0 to 100 scale, 10 days
Source text: as §1, §2

[17] = system: redroot pigweed (Amaranthus retroflexus); experiment: Test A postemergence, redroot pigweed; settings: 10 days
Source text: as §1, §2

rice (Oryza sativa) = experiment: Test B flooded paddy test, rice; settings: 250 g ai/ha, Flood; visually evaluated after 10 to 14 days
Procedure: as §3

[18] = system: barnyardgrass (Echinochloa crus-galli); experiment: Test B flooded paddy test, barnyardgrass; settings: 250 g ai/ha, Flood; visually evaluated after 10 to 14 days
Procedure: as §3

[19] = 31 g ai/ha, postemergence, 0 to 100 scale (0 no effect, 100 complete control)
[20] = Postemergence, 125 g ai/ha, 0 to 100 scale
[21] = 125 g ai/ha, 0 to 100 scale (0 no effect, 100 complete control)

CC(=O)OCOc1c(Cl)nn(C)c(=O)c1-c1c2cc(C)ccc2cc2ccc(C)cc12 [Compound 23]
30: Plant response rating, Barnyardgrass ([6]; 31 g ai/ha, 0 to 100 scale) | Plant response rating, Barnyardgrass [8, 19]
70: Plant response rating, Galium [1, 19] | Plant response rating, Ragweed [7, 19]
80: Plant response rating, Barnyardgrass [6, 21] | Plant response rating, Kochia (kochia (Bassia scoparia) [10]; [20])
100: Plant response rating, Galium [1, 20] | Plant response rating, Ragweed [7, 20] | Plant response rating, Pigweed, Redroot ([12]; 31 g ai/ha) | Plant response rating, Pigweed, Redroot ([12]; 125 g ai/ha) | Plant response rating, Pigweed, Redroot [17, 19] | Plant response rating, Pigweed, Redroot [17, 20]
60: Plant response rating, Kochia (kochia (Bassia scoparia) [11]; 31 g ai/ha) | Plant response rating, Barnyardgrass (0 to 100 scale where 0 is no effect and 100 is complete control) [18]
50: Plant response rating, Foxtail, Giant [5, 20]
0: Plant response rating, Wheat [3, 19] | Plant response rating, Wheat [3, 20] | Plant response rating, Foxtail, Giant [5, 19] | Plant response rating, Corn (corn (Zea mays); [19]) | Plant response rating, Ryegrass, Italian ([13]; 31 g ai/ha) | Plant response rating, Ryegrass, Italian ([13]; 125 g ai/ha) | Plant response rating, Ryegrass, Italian [14, 19] | Plant response rating, Foxtail, Giant ([16]; 31 g ai/ha) | Plant response rating, Rice (0 to 100 scale where 0 is no effect and 100 is complete control) (rice (Oryza sativa))
75: Plant response rating, Sedge, Umbrella (0 to 100 scale where 0 is no effect and 100 is complete control) [15]
95: Plant response rating, Ducksalad (0 to 100 scale where 0 is no effect and 100 is complete control) [2]
20: Plant response rating, Blackgrass [4, 20] | Plant response rating, Kochia (kochia (Bassia scoparia) [10]; [19]) | Plant response rating, Foxtail, Giant ([16]; 125 g ai/ha)
40: Plant response rating, Blackgrass [4, 19] | Plant response rating, Ragweed ([9]; 31 g ai/ha) | Plant response rating, Corn (corn (Zea mays); [20]) | Plant response rating, Ryegrass, Italian [14, 20]
90: Plant response rating, Barnyardgrass [8, 20] | Plant response rating, Ragweed ([9]; 125 g ai/ha) | Plant response rating, Kochia (kochia (Bassia scoparia) [11]; 125 g ai/ha)

COc1cc(OC)c2cc3ccc(F)cc3c(-c3c(OCOC(C)=O)c(C)nn(C)c3=O)c2c1 [Compound 25]
0: Plant response rating, Ducksalad (0 to 100 scale where 0 is no effect and 100 is complete control) [2] | Plant response rating, Wheat [3, 19] | Plant response rating, Wheat [3, 20] | Plant response rating, Blackgrass [4, 19] | Plant response rating, Foxtail, Giant [5, 19] | Plant response rating, Barnyardgrass ([6]; 31 g ai/ha, 0 to 100 scale) | Plant response rating, Barnyardgrass [6, 21] | Plant response rating, Ragweed [7, 19] | Plant response rating, Ragweed [7, 20] | Plant response rating, Barnyardgrass [8, 19] | Plant response rating, Ragweed ([9]; 31 g ai/ha) | Plant response rating, Ragweed ([9]; 125 g ai/ha) | Plant response rating, Kochia (kochia (Bassia scoparia) [10]; [19]) | Plant response rating, Corn (corn (Zea mays); [19]) | Plant response rating, Kochia (kochia (Bassia scoparia) [11]; 31 g ai/ha) | Plant response rating, Kochia (kochia (Bassia scoparia) [11]; 125 g ai/ha) | Plant response rating, Pigweed, Redroot ([12]; 31 g ai/ha) | Plant response rating, Ryegrass, Italian ([13]; 31 g ai/ha) | Plant response rating, Ryegrass, Italian ([13]; 125 g ai/ha) | Plant response rating, Ryegrass, Italian [14, 19] | Plant response rating, Ryegrass, Italian [14, 20] | Plant response rating, Sedge, Umbrella (0 to 100 scale where 0 is no effect and 100 is complete control) [15] | Plant response rating, Foxtail, Giant ([16]; 31 g ai/ha) | Plant response rating, Foxtail, Giant ([16]; 125 g ai/ha) | Plant response rating, Rice (0 to 100 scale where 0 is no effect and 100 is complete control) (rice (Oryza sativa)) | Plant response rating, Barnyardgrass (0 to 100 scale where 0 is no effect and 100 is complete control) [18]
60: Plant response rating, Galium [1, 20]
80: Plant response rating, Pigweed, Redroot [17, 19]
50: Plant response rating, Galium [1, 19]
90: Plant response rating, Pigweed, Redroot [17, 20]
20: Plant response rating, Foxtail, Giant [5, 20] | Plant response rating, Corn (corn (Zea mays); [20])
10: Plant response rating, Blackgrass [4, 20] | Plant response rating, Barnyardgrass [8, 20] | Plant response rating, Kochia (kochia (Bassia scoparia) [10]; [20])
30: Plant response rating, Pigweed, Redroot ([12]; 125 g ai/ha)

COc1ccc2cc3ccc(F)cc3c(-c3c(OCOC(C)=O)c(C)nn(C)c3=O)c2c1 [Compound 26]
100: Plant response rating, Galium [1, 20] | Plant response rating, Ragweed [7, 20] | Plant response rating, Pigweed, Redroot ([12]; 31 g ai/ha) | Plant response rating, Pigweed, Redroot ([12]; 125 g ai/ha) | Plant response rating, Pigweed, Redroot [17, 19] | Plant response rating, Pigweed, Redroot [17, 20]
20: Plant response rating, Wheat [3, 19] | Plant response rating, Foxtail, Giant [5, 19] | Plant response rating, Barnyardgrass [8, 19] | Plant response rating, Kochia (kochia (Bassia scoparia) [11]; 31 g ai/ha) | Plant response rating, Ryegrass, Italian [14, 19] | Plant response rating, Foxtail, Giant ([16]; 31 g ai/ha)
10: Plant response rating, Blackgrass [4, 20] | Plant response rating, Barnyardgrass ([6]; 31 g ai/ha, 0 to 100 scale) | Plant response rating, Corn (corn (Zea mays); [20]) | Plant response rating, Ryegrass, Italian ([13]; 31 g ai/ha) | Plant response rating, Rice (0 to 100 scale where 0 is no effect and 100 is complete control) (rice (Oryza sativa))
30: Plant response rating, Ragweed ([9]; 31 g ai/ha) | Plant response rating, Ragweed ([9]; 125 g ai/ha)
85: Plant response rating, Sedge, Umbrella (0 to 100 scale where 0 is no effect and 100 is complete control) [15]
0: Plant response rating, Blackgrass [4, 19] | Plant response rating, Corn (corn (Zea mays); [19])
80: Plant response rating, Galium [1, 19] | Plant response rating, Ducksalad (0 to 100 scale where 0 is no effect and 100 is complete control) [2] | Plant response rating, Kochia (kochia (Bassia scoparia) [10]; [20])
60: Plant response rating, Wheat [3, 20] | Plant response rating, Barnyardgrass (0 to 100 scale where 0 is no effect and 100 is complete control) [18]
40: Plant response rating, Barnyardgrass [8, 20] | Plant response rating, Kochia (kochia (Bassia scoparia) [10]; [19])
90: Plant response rating, Ragweed [7, 19] | Plant response rating, Kochia (kochia (Bassia scoparia) [11]; 125 g ai/ha) | Plant response rating, Ryegrass, Italian ([13]; 125 g ai/ha) | Plant response rating, Ryegrass, Italian [14, 20] | Plant response rating, Foxtail, Giant ([16]; 125 g ai/ha)
70: Plant response rating, Foxtail, Giant [5, 20] | Plant response rating, Barnyardgrass [6, 21]
